How the values were obtained:
[1] = Time-resolved emission spectroscopy (luminescence decay kinetics); format: physicochemical; conditions: degassed dichloromethane; excited 355 nm, monitored 560 nm
Experimental: Time-resolved emission spectroscopy was used to characterize the MLCT excited state of the D-B-A complex. Luminescence decay kinetics were recorded in degassed dichloromethane. The D-B-A complex was excited at 355 nm with an 8-ns laser pulse and luminescence was monitored at 560 nm. […] For comparison, the MLCT lifetime of the reference complex, [Re(CO)3(bpy)(py)]+, determined under identical experimental conditions, is 550 ns.
While the rate of intramolecular ET is concentration independent, intermolecular quenching processes vary predictably with concentration. As such, it is possible to separate the two quenching mechanisms and obtain rate constants for each. Time-resolved luminescence measurements at a series of D-B-A concentrations allow a second order intermolecular quenching rate to be determined. As the concentration was increased, shorter lifetimes were recorded in both dichloromethane and acetonitrile.
This lifetime includes both the natural decay of the photoexcited rhenium as well as quenching through intramolecular electron transfer. […] As the difference in lifetime of the D-B-A and model complex is quite small, these values should be considered upper bounds.

chromaffin cells = assay: Cell-attached membrane perforation test (capacitive charging transient); format: cell-based, mouse; conditions: positive control in pipette; within 5 minutes of gigaseal formation
From the text: FIGS. 5A-5H depict data from various experiments related to characteristics of RubpyC17-loaded cells. […] Inset images shown to the right of trace confirmed proper integration of RubpyC17 in patched cells. FIGS. 5C-5E show the light-induced action potential firing in chromaffin cells was not due to biophysical changes in voltage-gated ion channels as there were no significant changes in current-voltage relationships (C-D) nor in steady-state activation curve (E) in RubpyC17-loaded chromaffin cells before (open circle) or during ([…]) light illumination. […] Peak inward currents from each stimulation jump were plotted against corresponding stimulating voltages (n=6). […] Data from representative cell is shown (n=5). […] Currents resulting from capacitor-like behavior of chromaffin cell membranes during hyperpolarizing jumps to −85 mV from a resting membrane potential of −80 mV were recorded 5 min following giga-seal formation for amphoterecin B (bottom trace) or 10 min following giga-seal formation for RubpyC17 (top trace).
Finally, to test whether illumination of RubpyC17 incorporated in cell membranes causes nonspecific membrane poration or other damage, 18 μM RubpyC17 was loaded inside a patch pipette and attached to a cell (gigaseal formation) in the cell-attached configuration. […]

| SMILES | luminescence (MLCT) lifetime [1] [ns] | capacitive charging transient (membrane perforation) (chromaffin cells) |
| --- | --- | --- |
| [C-]#[O+].[C-]#[O+].[C-]#[O+].[Re+].c1ccc(-c2ccccn2)nc1.c1ccncc1 [[Re(CO)3(bpy)(py)]+] | 550 |  |
| C[C@@H]1[C@H](O)[C@@H](C)/C=C/C=C/C=C/C=C/C=C/C=C/C=C/[C@H](O[C@@H]2O[C@H](C)[C@@H](O)[C@H](N)[C@@H]2O)C[C@@H]2O[C@](O)(C[C@@H](O)C[C@@H](O)[C@H](O)CC[C@@H](O)C[C@@H](O)CC(=O)O[C@H]1C)C[C@H](O)[C@H]2C(=O)O [amphotericin B, reference compound] |  | a sizable capacitive charging transient |
